Reference: US9682962B2, “Pyrazolyl pyrimidinamine compound and application thereof” (SHENYANG SINOCHEM AGROCHEMICALS R&D CO., LTD., priority 2013, dated 2017)

Columns and labels:
wheat powdery mildew = test: Protectant activity in vivo (whole plant), wheat powdery mildew; conditions: protectant activity
Method: (§1) The method is as followed: The whole plant is used in this test. The compound is dissolved in a proper solvent to get mother solution. The proper solvent is selected from acetone, methanol, DMF and so on according to their dissolving capability to the sample. […] The testing solution is sprayed to the host plant by a special plant sprayer. The plant is inoculated with fungus after 24 hours. According to the infecting characteristic of fungus, the plant is stored in a humidity chamber and then transferred into greenhouse after infection is finished. And the other plants are placed in greenhouse directly.

corn rust = test: Protectant activity in vivo (whole plant), corn rust; conditions: 1.6 ppm
Method: as §1

diamond back moth = test: Bioactivity test against diamond back moth (airbrush spray); type: in vivo
Method: (§2) Compounds were dissolved in mixed solvent (acetone:methanol=1:1), and diluted to required concentration with water containing 0.1% of tween 80.
(§3) Diamond back moth, armyworm, peach aphid and carmine spider mite were used as targets and the method of spraying by airbrush was used for determination of insecticidal bioassays.
The method of spraying by airbrush: The cabbage leaves were made into plates of 2 cm diameter by use of punch. A test solution (0.5 ml) was sprayed by airbrush at the pressure of 0.7 kg/cm^2 to both sides of every plate. 10 Second instar larvae were put into the petri-dishes after the leaf disc air-dried and 3 replicates were set for each treatment. Then the insects were maintained in observation room (25° C., 60˜70% R.H.). Scores were conducted and mortalities were calculated after 72 h.

[1] = system: Green peach aphids (Myzus Persicae Sulzer); test: Bioactivity test against green peach aphid (airbrush foliar spray); type: in vivo
Method: as §2, §3
Method: Filter papers were put in culture dishes (Diameter=6 cm), and water was dripped on filter papers for preserving moisture. Green peach aphids (Myzus Persicae Sulzer) were maintained on cabbage. Leaves (Diameter=3 cm) of approximately 15-30 aphids were put in the culture dishes. Bioactivity tests were used the method of Airbrush Foliar Spray, pressure=10 psi (0.7 kg/cm2), spray volume=0.5 mL. The studies were conducted at […] 25±1 C in incubator cabinets with 60±5% RH. Survey the survival aphids after 48 h and calculate the death rates.

carmine spider mite = test: Bioactivity test against carmine spider mite (airbrush spray); type: in vivo; conditions: 10 ppm, after 72 hrs
Method: as §2, §3
The method: shoots with two true leaves in pot were taken, the healthy adults of carmine spider mite were inoculated to the leaves. The adults were counted and then sprayed with airbrush at the pressure of 0.7 kg/cm^2 and at dose of 0.5 ml. 3 replicates were set for each treatment. And then they were maintained in standard observation room. Scores were conducted and mortalities were calculated after 72 hrs.

With `FC(F)c1ncnc(NCCc2cnn(-c3ccc(Cl)cc3Cl)c2)c1Cl` [Compound 817] the “control effect against wheat powdery mildew (%)” value (from here on “control effect … (%)”) (wheat powdery mildew; 6.25 mg/L) was 100%, the “control effect … (%)” value (wheat powdery mildew; 25 mg/L) was 100% and the “control effect … (%)” value (wheat powdery mildew; 100 mg/L) was 100%. For the same molecule, the “control effect … (%)” value (wheat powdery mildew; 400 mg/L) was 100%, the “protectant activity against corn rust in vivo” value (corn rust) was 70% and the “Insecticidal activity against diamond back moth (%)” value (diamond back moth; 10 mg/L) was 21%. For the same molecule, the “Insecticidal activity against diamond back moth (%)” value (diamond back moth; 100 mg/L) was 70%, the “Insecticidal activity against diamond back moth (%)” value (diamond back moth; 600 mg/L) was 100% and the “control against diamond back moth (mortality)” value (diamond back moth; 600 ppm, after 72 h) was 100%. For the same molecule, the “Insecticidal activity against peach aphid (%)” value ([1]; 100 mg/L) was 100%, the “Insecticidal activity against peach aphid (%)” value ([1]; 600 mg/L) was 100% and the “control against carmine spider mite (mortality)” value (carmine spider mite) was 72%.
